Test results as given in patent US6642201B1, “Use of a dipeptide for stimulating repair processes” (priority 1998, dated 2003).
Where a SMILES comes first, the peptide text is derived from it.

Tested on: white outbred male mice
Assay: Acute toxicity according to Kerber, single intramuscular administration
Type: in vivo
Protocol: The study of the general toxic activity of dipeptide L-Lys-L-Glu was conducted in compliance with “The rules of pre-clinical estimation of safety of pharmacological Substances (GLP)”—
The purpose of the study consisted of the identification of tolerable toxic doses of the drug, estimation of stage and character of pathological alterations in various organs and systems of the organism and determination of correlation between toxic effect related to dose and duration of drug application.
The estimation of acute toxicity of dipeptide L-Lys-L-Glu was conducted according to Kerber. The study was carried out on 66 white outbred male mice with body weight 20-23 g, kept under standard regimen and fed with standard chow in the vivarium. The animals were divided at random into 6 equal groups of 11 mice each. The animals were exposed to single administration of the drug intramuscularly, 0.25 ml in doses 1 mg/kg, 2 mg/kg, 3 mg/kg, 4 mg/kg, 5 mg/kg, several thousand times exceeding therapeutic dose recommended for clinical trial. Control animals were administered sodium chloride solution in the same amount.

NCCCC[C@H](N)C(=O)N[C@@H](CCC(=O)O)C(=O)O [L-Lys-L-Glu dipeptide, L-lysil-L-glutamic acid] (H-Lys-Glu-OH)
toxic effects (doses several thousand times exceeding the therapeutic): does not induce any toxic effects
changes in general state, behavior, locomotor activity, integument, physiological discharges (mice, single i.m. 1-5 mg/kg, 72 hours and 14 days): No changes in the general state, behavior, locomotor activity, hairy or skin integument or physiological discharges
animal deaths (mice, single i.m. 1-5 mg/kg, in 72 hours and in 14 days): none of the animals in either of the groups died
